# Measured values: patent publication US12673942B2, “Azabicyclyl-substituted heterocycles as fungicides” (Bayer Aktiengesellschaft, priority 2020, dated 2026)
# Assay: Measurement of Log P values by HPLC on reversed phase columns (EEC directive 79/831 Annex V.A8)
# Format: physicochemical
# Details: method [a]: LC-UV, acidic range, 0.1% formic acid in water and acetonitrile as eluent
# Description: Measurement of Log P values as provided herein was performed according to EEC directive 79/831 Annex V.A8 by HPLC (High Performance Liquid Chromatography) on reversed phase columns with the following methods: • ^[a] Log P value is determined by measurement of LC-UV, in an acidic range, with 0.1% formic acid in water and acetonitrile as eluent (linear gradient from 10% acetonitrile to 95% acetonitrile). • ^[b] Log P value is determined by measurement of LC-UV, in a neutral range, with 0.001 molar ammonium acetate solution in water and acetonitrile as eluent (linear gradient from 10% acetonitrile to 95% acetonitrile). • ^[c] Log P value is determined by measurement of LC-UV, in an acidic range, with 0.1% phosphoric acid and acetonitrile as eluent (linear gradient from 10% acetonitrile to 95% acetonitrile).
# If more than one Log P value is available within the same method, all the values are given and separated by “+”. […]
SMILES,chromatographic logP,LogP
C#Cc1cccc(Oc2cnc3ccccc3c2C(=O)N[C@@H](CON2C(=O)c3ccccc3C2=O)Cc2ccc(C)cc2Cl)c1 (racemic) [Compound 3-07],4.47,
O=C(O)c1c(Oc2cccc(C(F)(F)F)c2)nnc2c1CCC2 [Compound 1-23],1.75,
Cc1ccc(C[C@@H]2CON=C(c3c(Oc4cccc(C)c4F)cnc4ccccc34)N2)c(C)c1 (racemic) [Compound I-020],4.15,
Cc1ccc(C[C@@H]2CON=C(c3c(Oc4cccc(C(F)(F)F)c4)nnc4c3CCC4)N2)c(C)c1 (racemic) [Compound I-027],3.87,
Cc1ccc(C[C@H](CON2C(=O)c3ccccc3C2=O)NC(=O)c2c(Oc3cccc(Br)c3F)nnc3c2CCCC3)c(C)c1 (racemic) [Compound 3-11],4.51,
Cc1ccc(C[C@H](CON)NC(=O)c2c(Oc3cccc(Br)c3F)nnc3c2CCCC3)c(C)c1 (racemic) [Compound 4-12],2.75,
C=Cc1cccc(Oc2cnc3ccccc3c2C2=NOC[C@@H](Cc3ccc(C)cc3Cl)N2)c1 (racemic) [Compound I-026],4.19,
Cc1ccc(C[C@H](CCl)NC(=NO)c2c(Br)cnc3nccnc23)c(C)c1 (racemic) [Compound 15-01],2.73,
C=Cc1cccc(Oc2cnc3ccccc3c2C(=O)N[C@@H](CON)Cc2ccc(C)cc2C)c1 (racemic) [Compound 4-06],3.09,
"Cc1ccc(C[C@H](CCl)N/C(=N\O)c2c(Oc3cccc(C4CC4)c3F)nnc3ccccc23)c(C)c1 (racemic) [Compound 12-01, N-[(2RS)-1-chloro-3-(2,4-dimethylphenyl)propan-2-yl]-3-(3-cyclopropyl-2-fluorophenoxy)-N′-hydroxycinnoline-4-carboximidamide]",4.7,
Cc1ccc(C[C@H](CCl)NC(=NO)c2c(Oc3cccc(Br)c3F)cnc3ccccc23)c(Cl)c1 (racemic) [Compound 12-03],4.62,
Cc1ccc(C[C@@H]2CON=C(c3c(Oc4cccc(C5CC5)c4F)nnc4c3CCC4)N2)c(C)c1 (racemic) [Compound I-029],4.13,
C#Cc1cccc(Oc2cnc3ccccc3c2C(=O)N[C@@H](CON)Cc2ccc(C)cc2C)c1 (racemic) [Compound 4-04],2.83,
Cc1ccc(C[C@H](CCl)NC(=O)c2c(Oc3cccc(C(F)F)c3)cnc3ccccc23)c(Cl)c1 (racemic) [Compound 10-05],4.33,
N[C@H](CCl)Cc1ccc(Br)cc1Cl (racemic) [Compound 9-03],1.37,
Cc1ccc(C[C@@H]2CON=C(c3c(Oc4cccc(Br)c4F)nnc4c3CCCC4)N2)c(C)c1 (racemic) [Compound I-024],4.01,
"Cc1ccc(CC(CON)NC(=O)c2c(Oc3cccc(Cl)c3)nnc3ccccc23)c(C)c1 (racemic) [Compound 4-03, N-[(2RS)-1-(aminooxy)-3-(2,4-dimethylphenyl)propan-2-yl]-3-(3-chloro-phenoxy)cinnoline-4-carboxamide]",2.8,
Cc1ccc(C[C@H](CON)NC(=O)c2c(Oc3cccc(C(F)(F)F)c3)nnc3c2CCC3)c(C)c1 (racemic) [Compound 4-13],2.78,
Cc1ccc(C[C@H](CON)NC(=O)c2c(Oc3cccc(C4CC4)c3F)cnc3ccccc23)c(C)c1 (racemic) [Compound 4-05],3.31,
Cc1ccc(C[C@H](CON2C(=O)c3ccccc3C2=O)NC(=O)c2c(Oc3cccc(Cl)c3F)nnc3c2CCCC3)c(C)c1 (racemic) [Compound 3-10],4.47,
Cc1ccc(C[C@H](CON2C(=O)c3ccccc3C2=O)NC(=O)c2c(Oc3cccc(C(F)(F)F)c3)nnc3c2CCCC3)c(C)c1 (racemic) [Compound 3-09],4.59,
Cc1ccc(C[C@H](CON2C(=O)c3ccccc3C2=O)NC(=O)c2c(Oc3cccc(C(F)(F)F)c3)nnc3c2CCC3)c(C)c1 (racemic) [Compound 3-12],4.47,
Cc1ccc(C[C@H](CON2C(=O)c3ccccc3C2=O)NC(=O)c2c(Oc3cccc(C4CC4)c3F)cnc3ccccc23)c(C)c1 (racemic) [Compound 3-04],4.96,
Cc1ccc(C[C@H](CCl)NC(=O)c2c(Oc3cccc(Br)c3F)cnc3ccccc23)c(Cl)c1 (racemic) [Compound 10-04],4.7,
Cc1ccc(C[C@H](CON2C(=O)c3ccccc3C2=O)NC(=O)c2c(Oc3cccc(C(F)(F)F)c3)cnc3ccccc23)c(C)c1 (racemic) [Compound 3-02],4.72,
Cc1ccc(C[C@H](CON)NC(=O)c2c(Oc3cccc(C4CC4)c3F)nnc3c2CCC3)c(C)c1 (racemic) [Compound 4-15],2.83,
Cc1ccc(C[C@H](CCl)NC(=NO)c2c(Oc3cccc(C(F)(F)F)c3)cnc3ccoc23)c(C)c1 (racemic) [Compound 12-05],4.4,

SMILES,chromatographic logP,LogP
C#Cc1cccc(Oc2cnc3ccccc3c2C(=O)N[C@@H](CON2C(=O)c3ccccc3C2=O)Cc2ccc(C)cc2C)c1 (racemic) [Compound 3-03],4.44,
Cc1ccc(C[C@H](CON)NC(=O)c2c(Oc3cccc(Cl)c3F)nnc3c2CCCC3)c(C)c1 (racemic) [Compound 4-11],2.7,
Cc1ccc(C[C@@H]2CON=C(c3c(Oc4cccc(C(F)F)c4)cnc4ccccc34)N2)c(Cl)c1 (racemic) [Compound I-031],3.98,
"Cc1ccc(CC(CCl)NC(=O)c2c(Oc3cccc(C(F)(F)F)c3)cnc3ccccc23)c(C)c1 (racemic) [Compound 10-02, N-[(2RS)-1-chloro-3-(2,4-dimethylphenyl)propan-2-yl]-3-[3-(trifluoro-methyl)phenoxy]quinoline-4-carboxamide]",4.81,
Cc1ccc(C[C@H](CON2C(=O)c3ccccc3C2=O)NC(=O)c2c(Oc3cccc(C(F)F)c3)nnc3c2CCCC3)c(C)c1 (racemic) [Compound 3-13],4.13,
C#Cc1cccc(Oc2cnc3ccccc3c2C(=O)N[C@@H](CON)Cc2ccc(C)cc2Cl)c1 (racemic) [Compound 4-08],2.87,
Cc1ccc(C[C@H](N)CCl)c(C)c1 (racemic) [Compound 9-02],1.24,
Cc1ccc(C[C@H](CON2C(=O)c3ccccc3C2=O)NC(=O)c2c(Oc3cccc(C4CC4)c3F)nnc3c2CCC3)c(C)c1 (racemic) [Compound 3-14],4.56,
Cc1ccc(C[C@H](CON)NC(=O)c2c(Oc3cccc(C(F)F)c3)nnc3c2CCCC3)c(C)c1 (racemic) [Compound 4-14],2.55,
Cc1ccc(C[C@H](CCl)NC(=O)c2c(Br)cnc3nccnc23)c(C)c1 (racemic) [Compound 14-01],2.97,
Cc1ccc(C[C@H](CCl)NC(=O)c2c(Oc3cccc(C4CC4)c3F)cnc3ccccc23)c(Cl)c1 (racemic) [Compound 10-03],5,
C=Cc1cccc(Oc2cnc3ccccc3c2C(=O)N[C@@H](CON2C(=O)c3ccccc3C2=O)Cc2ccc(C)cc2Cl)c1 (racemic) [Compound 3-08],4.71,
Cc1ccc(C[C@@H]2CON=C(c3c(Oc4cccc(C(F)F)c4)nnc4c3CCCC4)N2)c(C)c1 (racemic) [Compound I-028],3.6,
C=Cc1cccc(Oc2cnc3ccccc3c2C(=O)N[C@@H](CON)Cc2ccc(C)cc2Cl)c1 (racemic) [Compound 4-09],3.12,
C#Cc1cccc(Oc2cnc3ccccc3c2C2=NOC[C@@H](Cc3ccc(C)cc3Cl)N2)c1 (racemic) [Compound I-025],3.91,
Cc1ccc(C[C@H](CON)NC(=O)c2c(Oc3cccc(Br)c3F)cnc3ccccc23)c(C)c1 (racemic) [Compound 4-07],3.11,
Cc1ccc(C[C@H](CON2C(=O)c3ccccc3C2=O)NC(=O)c2c(Oc3cccc(Br)c3F)cnc3ccccc23)c(C)c1 (racemic) [Compound 3-06],4.78,
Cc1ccc(C[C@H](CCl)NC(=NO)c2c(Oc3cccc(C(F)F)c3)cnc3ccccc23)c(Cl)c1 (racemic) [Compound 12-04],4.28,
Cc1ccc(C[C@H](CCl)NC(=O)c2c(Oc3cccc(C(F)(F)F)c3)cnc3ccoc23)c(C)c1 (racemic) [Compound 10-06],4.55,
Cc1ccc(C[C@@H]2CON=C(c3c(Oc4cccc(C(F)(F)F)c4)nnc4c3CCCC4)N2)c(C)c1 (racemic) [Compound I-022],3.99,
Cc1ccc(C[C@@H]2CON=C(c3c(Oc4cccc(Cl)c4F)nnc4c3CCCC4)N2)c(C)c1 (racemic) [Compound I-023],3.91,
Cc1ccc(C[C@@H]2CON=C(c3c(Br)cnc4nccnc34)N2)c(C)c1 (racemic) [Compound 7-01],2.41,
Cc1ccc(C[C@H](CON)NC(=O)c2c(Oc3cccc(C(F)(F)F)c3)cnc3ccccc23)c(C)c1 (racemic) [Compound 4-02],3.17,
Cc1ccc(C[C@H](CON)NC(=O)c2c(Oc3cccc(C(F)(F)F)c3)nnc3c2CCCC3)c(C)c1 (racemic) [Compound 4-10],2.91,
CCOC(=O)c1c(Oc2cccc(C(F)(F)F)c2)nnc2c1CCC2 [Compound 1-22],3.5,
Cc1ccc(C[C@@H]2CON=C(c3c(Oc4cccc(Br)c4F)cnc4ccccc34)N2)c(Cl)c1 (racemic) [Compound I-030],4.37,
Cc1ccc(C[C@@H](CON)NC(=O)c2c(Oc3cccc(C(F)(F)F)c3)nnc3cc(C)ccc23)c(C)c1 (racemic) [Compound 4-01],3.42,3.51

# Same assay, conditions: method [b]: LC-UV, neutral range, 0.001 molar ammonium acetate solution in water and acetonitrile as eluent
row,SMILES,chromatographic logP
1,O=C(O)c1c(Oc2cccc(C(F)(F)F)c2)nnc2c1CCC2 [Compound 1-23],0.44
2,CCOC(=O)c1c(Oc2cccc(C(F)(F)F)c2)nnc2c1CCC2 [Compound 1-22],3.35
3,Cc1ccc(C[C@@H](CON)NC(=O)c2c(Oc3cccc(C(F)(F)F)c3)nnc3cc(C)ccc23)c(C)c1 (racemic) [Compound 4-01],3.62
